For 15 compounds, IC50 results are on record in patent publication US10538555B2, “Macrocyclic inhibitors of the PD-1/PD-L1 and CD80(B7-1)/PD-L1 protein/protein interactions” (BRISTOL-MYERS SQUIBB COMPANY, priority 2014, dated 2020).

*1 amine or outer side, *2 acyl side, *3 side chain or, on linkers, in order; H or OH if unused. Where a SMILES comes first, the peptide text is derived from it. Bridges are numbered along the chain shown (N, C = ends). [ ]: non-standard residue; d: D form. ξ: configuration not given here. Trp(1-CH2COOH) = N[C@@H](Cc1cn(CC(=O)O)c2ccccc12)C(=O)O; Phe(3,4,5-F3) = N[C@@H](Cc1cc(F)c(F)c(F)c1)C(=O)O; NMePhe(4-F) = CN[C@@H](Cc1ccc(F)cc1)C(=O)O; Bta = N[C@@H](Cc1csc2ccccc12)C(=O)O; Hyp = O=C(O)[C@@H]1C[C@@H](O)CN1; NMeF = CN[C@@H](Cc1ccccc1)C(=O)O; X1 = O=C([C@H]1COCCN1[*:1])[*:2]; dHyp = O=C(O)[C@H]1C[C@H](O)CN1; NMehSer = CN[C@@H](CCO)C(=O)O; NMeNle = CCCC[C@H](NC)C(=O)O; Pip = O=C(O)[C@@H]1CCCCN1; dPip = O=C(O)[C@H]1CCCCN1; NMeA = CN[C@@H](C)C(=O)O; Orn = NCCC[C@H](N)C(=O)O; dNMeA = CN[C@H](C)C(=O)O; dThz = O=C(O)[C@H]1CSCN1; Dab = NCC[C@H](N)C(=O)O; Dap = NC[C@H](N)C(=O)O; ξC = NC(CS)C(=O)O

The first experiment deals with T1, Human PD-L1/PD-1 (Homo sapiens, UniProt Q9NZQ7).
T1 construct: TVMV protease cleavage site (C); made in house; host or cells: HEK293T cells
T1 sequence (Q9NZQ7 with tags, fused parts or gaps): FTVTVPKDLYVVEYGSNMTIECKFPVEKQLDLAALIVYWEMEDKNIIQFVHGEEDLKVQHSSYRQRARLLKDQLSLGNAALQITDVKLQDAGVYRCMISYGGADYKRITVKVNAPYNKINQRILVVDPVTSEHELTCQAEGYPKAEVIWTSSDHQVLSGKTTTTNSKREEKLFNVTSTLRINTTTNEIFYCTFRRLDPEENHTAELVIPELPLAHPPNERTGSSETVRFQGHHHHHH
Kind of experiment: HTRF Human PD-L1/PD-1 binding assay (PD-1-Ig/PD-L1-His). Particulars: PD-L1-His 10 nM, PD-1-Ig 20 nM; class symbol; read-out: HTRF Human PD-L1/PD-1 Binding Assay IC50 Range. Put shortly:
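HTRF competition using HEK293T-expressed human PD-1(25-167)-Ig at 20 nM and PD-L1(18-239)-His at 10 nM, compound incubated first with PD-L1 for 15 min, then with PD-1 for 15 min. Signal read as 665/620 nm ratio 30 min after adding Eu anti-Ig and APC anti-His antibodies.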
Regarding `CCCC[C@H]1C(=O)N(C)[C@@H](CCCC)C(=O)N[C@@H](CC(C)C)C(=O)N[C@H](C(=O)NCC(N)=O)CSCC(=O)N[C@@H](Cc2ccc(O)cc2)C(=O)N(C)[C@@H](C)C(=O)N[C@@H](CC(N)=O)C(=O)N2CCC[C@H]2C(=O)N[C@@H](CN)C(=O)N[C@@H](CC(C)C)C(=O)N2CCC[C@H]2C(=O)N[C@@H](Cc2c[nH]c3ccccc23)C(=O)N[C@@H](CCN)C(=O)N[C@@H](Cc2ccc(O)cc2)C(=O)N1C` [Example 6272] ({CH2CO}-Y[NMeA]NP[Dap]LPW[Dab]Y[NMeNle][NMeNle]LCG-NH2; thioether N-14), the IC50 lay within 1 to 9.9 nM.
As for `CCCC[C@H]1C(=O)N2CCC[C@@H]2C(=O)N[C@@H](CC(=O)O)C(=O)N[C@@H](C(C)C)C(=O)N(C)[C@@H](Cc2ccccc2)C(=O)N[C@@H](CCC(=O)O)C(=O)N2CSC[C@@H]2C(=O)N[C@@H](Cc2c[nH]c3ccccc23)C(=O)N[C@@H](Cc2ccc(O)cc2)C(=O)N[C@@H](CC(C)C)C(=O)N[C@H](C(=O)NCC(N)=O)CSCC(=O)N[C@@H](Cc2cc(F)c(F)c(F)c2)C(=O)N(C)[C@@H](Cc2ccccc2)C(=O)N1C` [Example 10090] ({CH2CO}-[Phe(3,4,5-F3)][NMeF][NMeNle][dP]DV[NMeF]E[dThz]WYLCG-NH2; thioether N-13), the IC50 lay within 1 to 9.9 nM.
Turning to `CCCC[C@H]1C(=O)N2CCC[C@@H]2C(=O)N[C@@H](CCN)C(=O)N[C@@H](C(C)C)C(=O)N(C)[C@@H](Cc2ccccc2)C(=O)N[C@@H](CCC(=O)O)C(=O)N2CCCC[C@@H]2C(=O)N[C@@H](Cc2c[nH]c3ccccc23)C(=O)N[C@@H](Cc2ccc(O)cc2)C(=O)N[C@@H](CC(C)C)C(=O)N[C@H](C(=O)NCC(N)=O)CSCC(=O)N[C@@H](Cc2cc(F)c(F)c(F)c2)C(=O)N(C)[C@@H](Cc2ccc(F)cc2)C(=O)N1C` [Example 10577] ({CH2CO}-[Phe(3,4,5-F3)][NMePhe(4-F)][NMeNle][dP][Dab]V[NMeF]E[dPip]WYLCG-NH2; thioether N-13), the IC50 is 1 to 9.9 nM.
Take `CCCC[C@H]1C(=O)N2C[C@@H](O)C[C@@H]2C(=O)N[C@@H](CC(=O)O)C(=O)N[C@@H](C(C)C)C(=O)N(C)[C@@H](Cc2ccccc2)C(=O)N[C@@H](CCC(=O)O)C(=O)N2CCCC[C@@H]2C(=O)N[C@@H](Cc2c[nH]c3ccccc23)C(=O)N[C@@H](Cc2ccc(O)cc2)C(=O)N[C@@H](CCN)C(=O)N[C@H](C(=O)NCC(N)=O)CSCC(=O)N[C@@H](Cc2cc(F)c(F)c(F)c2)C(=O)N(C)[C@@H](Cc2ccc(F)cc2)C(=O)N1C` [Example 10566] ({CH2CO}-[Phe(3,4,5-F3)][NMePhe(4-F)][NMeNle][dHyp]DV[NMeF]E[dPip]WY[Dab]CG-NH2; thioether N-13): the IC50 was in the range of 1 to 9.9 nM.
In the case of `CCCC[C@H]1C(=O)N(C)[C@@H](CCCC)C(=O)N[C@@H](CCC(=O)O)C(=O)N[C@H](C(=O)NCC(N)=O)CSCC(=O)N[C@@H](Cc2ccc(O)cc2)C(=O)N2CCCC[C@H]2C(=O)N[C@@H](CC(=O)O)C(=O)N2CCC[C@H]2C(=O)N[C@@H](CO)C(=O)N[C@@H](CCC(N)=O)C(=O)N2C[C@H](O)C[C@H]2C(=O)N[C@@H](Cc2c[nH]c3ccccc23)C(=O)N[C@@H](CO)C(=O)N[C@@H](Cc2csc3ccccc23)C(=O)N1C` [Example 1506] ({CH2CO}-Y[Pip]DPSQ[Hyp]WS[Bta][NMeNle][NMeNle]ECG-NH2; thioether N-14), the IC50 lay in the range of 1 to 9.9 nM.
Consider `CCCC[C@H]1C(=O)N2C[C@@H](O)C[C@@H]2C(=O)N[C@@H](CC(=O)O)C(=O)N[C@@H](C(C)C)C(=O)N(C)[C@@H](Cc2ccccc2)C(=O)N[C@@H](CCC(=O)O)C(=O)N2CCOC[C@@H]2C(=O)N[C@@H](Cc2c[nH]c3ccccc23)C(=O)N[C@@H](Cc2ccc(O)cc2)C(=O)N[C@@H](CCCN)C(=O)N[C@H](C(=O)NCC(N)=O)CSCC(=O)N[C@@H](Cc2cc(F)c(F)c(F)c2)C(=O)N(C)[C@@H](Cc2ccccc2)C(=O)N1C` [Example 9321] ({CH2CO}-[Phe(3,4,5-F3)][NMeF][NMeNle][dHyp]DV[NMeF]E[X1]WY[Orn]CG-NH2; thioether N-13), for which the IC50 lay within 1 to 9.9 nM.
Consider `CCCC[C@H]1C(=O)N[C@@H](CCC(=O)O)C(=O)N[C@H](C(=O)NCC(N)=O)CSCC(=O)N[C@@H](Cc2ccc(O)cc2)C(=O)N(C)[C@@H](C)C(=O)N[C@@H](CC(=O)O)C(=O)N2CCC[C@H]2C(=O)N[C@@H](Cc2c[nH]cn2)C(=O)N[C@@H](CCC(N)=O)C(=O)N2C[C@H](O)C[C@H]2C(=O)N[C@@H](Cc2c[nH]c3ccccc23)C(=O)N[C@@H](CO)C(=O)N[C@@H](Cc2c[nH]c3ccccc23)C(=O)N(C)[C@@H](CCOC)C(=O)N1C` [Example 10136] ({CH2CO}-Y[NMeA]DPHQ[Hyp]WSW[NMehSer](Me)[NMeNle]ECG-NH2; thioether N-14), for which the IC50 lay in the range of 1 to 9.9 nM.
Same read-out and setting: for `CCCC[C@H]1C(=O)N(C)[C@@H](CCCC)C(=O)N[C@@H](C)C(=O)N[C@H](C(=O)NCC(N)=O)CSCC(=O)N[C@@H](Cc2ccc(O)cc2)C(=O)N(C)[C@@H](C)C(=O)N[C@@H](CC(N)=O)C(=O)N2CCC[C@H]2C(=O)N[C@@H](CN)C(=O)N[C@@H](CC(C)C)C(=O)N2C[C@H](O)C[C@H]2C(=O)N[C@@H](Cc2c[nH]c3ccccc23)C(=O)N[C@@H](CCN)C(=O)N[C@@H](Cc2cn(CC(=O)O)c3ccccc23)C(=O)N1C` [Example 5166] ({CH2CO}-Y[NMeA]NP[Dap]L[Hyp]W[Dab][Trp(1-CH2COOH)][NMeNle][NMeNle]ACG-NH2; thioether N-14) the value was 10 to 99.9 nM.
As to `CCCC[C@H]1C(=O)N(C)[C@@H](CCCC)C(=O)N[C@@H](CCC(=O)O)C(=O)N[C@H](C(=O)NCC(N)=O)CSCC(=O)N[C@@H](Cc2ccc(OC)cc2)C(=O)N(C)[C@@H](C)C(=O)N[C@@H](CC(N)=O)C(=O)N2CCC[C@H]2C(=O)N[C@@H](Cc2cnc[nH]2)C(=O)N[C@@H](CCC(=O)O)C(=O)N2C[C@H](O)C[C@H]2C(=O)N[C@@H](Cc2c[nH]c3ccccc23)C(=O)N[C@@H](CCN)C(=O)N[C@@H](Cc2c[nH]c3ccccc23)C(=O)N1C` [Example 7109] ({CH2CO}-Y(Me)[NMeA]NPHE[Hyp]W[Dab]W[NMeNle][NMeNle]ECG-NH2; thioether N-14), the IC50 was in the range of 1 to 9.9 nM.
Take `CC(C)C[C@@H]1NC(=O)[C@H](Cc2ccc(O)cc2)NC(=O)[C@H](Cc2c[nH]c3ccccc23)NC(=O)[C@@H](C)N(C)C(=O)[C@H](Cc2ccc(O)cc2)NC(=O)[C@H](Cc2ccccc2)N(C)C(=O)[C@H](C(C)C)NC(=O)[C@H](CCC(N)=O)NC(=O)[C@@H](C)N(C)C(=O)[C@H](C)N(C)C(=O)[C@H](Cc2ccccc2)N(C)C(=O)[C@H](Cc2cc(F)c(F)c(F)c2)NC(=O)CSC[C@@H](C(=O)NCC(N)=O)NC1=O` [Example 9191] ({CH2CO}-[Phe(3,4,5-F3)][NMeF][NMeA][dNMeA]QV[NMeF]Y[dNMeA]WYLCG-NH2; thioether N-13): the IC50 lay within 10 to 99.9 nM.
Regarding `CCCC[C@H]1C(=O)N(C)[C@@H](CCCC)C(=O)N[C@@H](CC(C)C)C(=O)N[C@H](C(=O)NCC(N)=O)CSCC(=O)N[C@@H](Cc2ccc(O)cc2)C(=O)N(C)[C@@H](C)C(=O)N[C@@H](CC(N)=O)C(=O)N2CCC[C@H]2C(=O)N[C@@H](Cc2cnc[nH]2)C(=O)N[C@@H](CCC(N)=O)C(=O)N2C[C@H](O)C[C@H]2C(=O)N[C@@H](Cc2c[nH]c3ccccc23)C(=O)N[C@@H](CCN)C(=O)N[C@@H](Cc2cn(CC(=O)O)c3ccccc23)C(=O)N1C` [Example 5241] ({CH2CO}-Y[NMeA]NPHQ[Hyp]W[Dab][Trp(1-CH2COOH)][NMeNle][NMeNle]LCG-NH2; thioether N-14), the IC50 lay within 10 to 99.9 nM.
Regarding `CCCC[C@H]1C(=O)N2CCC[C@@H]2C(=O)N[C@@H](CC(=O)O)C(=O)N[C@@H](C(C)C)C(=O)N(C)[C@@H](Cc2ccccc2)C(=O)N[C@@H](CC(=O)O)C(=O)N2CCCC[C@@H]2C(=O)N[C@@H](Cc2c[nH]c3ccccc23)C(=O)N[C@@H](Cc2ccc(O)cc2)C(=O)N[C@@H](CC(C)C)C(=O)N[C@H](C(=O)NCC(N)=O)CSCC(=O)N[C@@H](Cc2cc(F)c(F)c(F)c2)C(=O)N(C)[C@@H](Cc2ccc(F)cc2)C(=O)N1C` [Example 10570] ({CH2CO}-[Phe(3,4,5-F3)][NMePhe(4-F)][NMeNle][dP]DV[NMeF]D[dPip]WYLCG-NH2; thioether N-13), the IC50 is 1 to 9.9 nM.
Consider `CCCC[C@H]1C(=O)N(C)[C@@H](C)C(=O)N[C@@H](CCCNC(=N)N)C(=O)NC(C(=O)NCC(N)=O)CSCC(=O)N[C@@H](Cc2ccc(O)cc2)C(=O)N(C)[C@@H](C)C(=O)N[C@@H](CC(N)=O)C(=O)N2CCC[C@H]2C(=O)N[C@@H](CC(N)=O)C(=O)N[C@@H](CC(C)C)C(=O)N2C[C@H](O)C[C@H]2C(=O)N[C@@H](Cc2c[nH]c3ccccc23)C(=O)N[C@@H](CO)C(=O)N[C@@H](Cc2csc3ccccc23)C(=O)N1C` (stereo partly drawn) [Example 9139] ({CH2CO}-Y[NMeA]NPNL[Hyp]WS[Bta][NMeNle][NMeA]R[ξC]G-NH2; thioether N-14), for which the IC50 fell in the range of 1 to 9.9 nM.
With `CCCC[C@H]1C(=O)N(C)[C@@H](CCCC)C(=O)N[C@@H](CCC(=O)O)C(=O)N[C@H](C(=O)NCC(N)=O)CSCC(=O)N[C@@H](Cc2ccc(OC)cc2)C(=O)N(C)[C@@H](C)C(=O)N[C@@H](CCN)C(=O)N2CCC[C@H]2C(=O)N[C@@H](Cc2cnc[nH]2)C(=O)N[C@@H](CCCCN)C(=O)N2C[C@H](O)C[C@H]2C(=O)N[C@@H](Cc2c[nH]c3ccccc23)C(=O)N[C@@H](CC(=O)O)C(=O)N[C@@H](Cc2c[nH]c3ccccc23)C(=O)N1C` [Example 7126] ({CH2CO}-Y(Me)[NMeA][Dab]PHK[Hyp]WDW[NMeNle][NMeNle]ECG-NH2; thioether N-14), the IC50 was 1000 to 10000 nM.

Still in this experiment, the particulars now being: PD-L1-His 10 nM, PD-1-Ig 20 nM; read-out: HTRF Human PD-L1/PD-1 Binding Assay IC50.
In the case of `CCCC[C@H]1C(=O)N(C)[C@@H](CCCC)C(=O)N[C@@H](CCCN)C(=O)N[C@H](C(=O)NCC(N)=O)CSCC(=O)N[C@@H](Cc2ccc(O)cc2)C(=O)N2CCC[C@]2(C)C(=O)N[C@@H](CC(N)=O)C(=O)N2CCCC2C(=O)N[C@@H](Cc2cnc[nH]2)C(=O)N[C@@H](CC(C)C)C(=O)N2C[C@H](O)C[C@H]2C(=O)N[C@@H](Cc2c[nH]c3ccccc23)C(=O)N[C@@H](CO)C(=O)N[C@@H](Cc2c[nH]c3ccccc23)C(=O)N1C` (stereo partly drawn) [Example 1241], the IC50 came out at 1000 nM.
